Source: the supplement of paper PMC10307832

Tests used:
Assay in all cases: relative viability (nuclei count vs DMSO), 5 days (fraction); higher = more cells survive
[1] = tested on: NCI-H441
How it was run: (§1)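 Relative viability is defined as nuclei in treated wells over nuclei in vehicle wells. Duplicate plates were run and medians reported. Lung cancer cell lines in 1536-well plates were dosed by pin tool one day after seeding, with one drug or with a fixed anchor-drug dose plus five library-drug doses (not always all listed) in √10 steps, and nuclei were counted after 5 days.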

[2] = tested on: ChaGo-K-1
How it was run: as §1

[3] = tested on: NCI-H650
How it was run: as §1

[4] = tested on: NCI-H2126
How it was run: as §1

[5] = tested on: NCI-H647
How it was run: as §1

[6] = tested on: NCI-H2347
How it was run: as §1

[7] = tested on: HCC-44
How it was run: as §1

[8] = tested on: NCI-H1437
How it was run: as §1

[9] = tested on: NCI-H1793
How it was run: as §1

[10] = tested on: NCI-H520
How it was run: as §1

[11] = tested on: LCLC-103H
How it was run: as §1

[12] = tested on: NCI-H2405
How it was run: as §1

## Cc1cnc(-c2cnc(NCCNc3ccc(C#N)cn3)nc2-c2ccc(Cl)cc2Cl)[nH]1 + Cc1cc(Nc2cc(N3CCN(C)CC3)nc(Sc3ccc(NC(=O)C4CC4)cc3)n2)n[nH]1 [Tozasertib] (partner 0.1 µM)
[1]; first compound 0.8 µM
  relative viability: 0.602
[1]; first compound 2.53 µM
  relative viability: 0.405
[2]; first compound 0.08 µM
  relative viability: 0.241
[2]; first compound 0.253 µM
  relative viability: 0.215
[2]; first compound 0.8 µM
  relative viability: 0.231
[2]; first compound 2.53 µM
  relative viability: 0.22
[3]; first compound 0.08 µM
  relative viability: 0.726
[3]; first compound 0.253 µM
  relative viability: 0.746
[3]; first compound 0.8 µM
  relative viability: 0.675
[3]; first compound 2.53 µM
  relative viability: 0.734
[4]; first compound 0.08 µM
  relative viability: 1.02
[4]; first compound 0.253 µM
  relative viability: 0.802
[4]; first compound 0.8 µM
  relative viability: 0.844
[4]; first compound 2.53 µM
  relative viability: 0.837
[5]; first compound 0.08 µM
  relative viability: 0.306
[5]; first compound 0.253 µM
  relative viability: 0.163
[5]; first compound 0.8 µM
  relative viability: 0.263
[5]; first compound 2.53 µM
  relative viability: 0.172
[6]; first compound 0.08 µM
  relative viability: 0.59
[6]; first compound 0.253 µM
  relative viability: 0.466
[6]; first compound 0.8 µM
  relative viability: 0.411
[6]; first compound 2.53 µM
  relative viability: 0.481
[7]; first compound 0.08 µM
  relative viability: 1.04
[7]; first compound 0.253 µM
  relative viability: 0.746
[7]; first compound 0.8 µM
  relative viability: 0.676
[7]; first compound 2.53 µM
  relative viability: 0.781
[8]; first compound 0.08 µM
  relative viability: 0.456
[8]; first compound 0.253 µM
  relative viability: 0.444
[8]; first compound 0.8 µM
  relative viability: 0.431
[8]; first compound 2.53 µM
  relative viability: 0.371
[9]; first compound 0.08 µM
  relative viability: 0.347
[9]; first compound 0.253 µM
  relative viability: 0.276
[9]; first compound 0.8 µM
  relative viability: 0.257
[9]; first compound 2.53 µM
  relative viability: 0.182
[10]; first compound 0.08 µM
  relative viability: 0.517
[10]; first compound 0.253 µM
  relative viability: 0.444
[10]; first compound 0.8 µM
  relative viability: 0.397
[10]; first compound 2.53 µM
  relative viability: 0.499
[11]; first compound 0.08 µM
  relative viability: 0.503
[11]; first compound 0.253 µM
  relative viability: 0.417
[11]; first compound 0.8 µM
  relative viability: 0.429
[11]; first compound 2.53 µM
  relative viability: 0.426
[12]; first compound 0.08 µM
  relative viability: 0.764
[12]; first compound 0.253 µM
  relative viability: 0.697
[12]; first compound 0.8 µM
  relative viability: 0.714
[12]; first compound 2.53 µM
  relative viability: 0.505
